Source: PubChem BioAssay AID720589 (Broad Institute, 2013)
Calls of active or inactive are those of the source.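 The calls were made as follows: active = fitted curve drops below -35% activity at a concentration within twice the top valid tested dose; inconclusive = no clear call, values can overlap the other calls; inactive = signal rising instead of falling, among other cases.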

test: ATP-based viability loss in HepG2 cells – cell-based, CellTiter-Glo luminescence, cherry-pick, set 3, cytotoxicity control, dose response (AID 720589); details: HepG2 viability, ATP luminescence (CellTiter-Glo), 72 h; at 0.011 µM; active compounds read low; 0% = untreated, negative = ATP loss

| Compound | max activity |
| --- | --- |
| COc1ccc(NS(=O)(=O)c2cc(NC(=O)CNC(=O)c3cccc(OC)c3)ccc2C)cc1 | -35% (inactive) |
| O=C(CCCCl)Nc1nc(-c2ccc3c(c2)OCCO3)cs1 | -25% (inactive) |
| Cc1c(-c2nc(-c3ccc(C(C)(C)C)cc3)no2)n(C)oc1=O | -27.3% (inactive) |
| CCS(=O)(=O)N1Cc2ccccc2CC1C(=O)Nc1nnc(SCc2ccc(C#N)cc2)s1 (stereo not drawn) | 21.9% (inactive) |
| COc1ccc(N=C2C(=O)Nc3ccc(C)c(Br)c32)cc1 | 23.9% (inactive) |
| Cc1ccsc1C(=O)OCC(=O)NCCC1=CCCCC1 | -13% (inactive) |
| CC(=O)Nc1cccc(-c2ccnc3c2CC(C)(C(=O)NCc2ccc(N(C)C)cc2)O3)c1 (stereo not drawn) | 32.9% (inactive) |
| COc1ccc(C=NNc2nc3ccccc3s2)cc1 | -25.7% (inactive) |
| N#Cc1cccc(-c2ccc(C3[C@@H]4CN(C(=O)Cc5ccncc5)C[C@H]3N4)cc2)c1 (stereo partly drawn) | 21% (inactive) |
| N/C(Cc1nc(-c2ccc(F)cc2)cs1)=N\O | 20.4% (inactive) |
| C=CC[n+]1c(-c2ccc(C)cc2)csc1Nc1ccc(NC(C)=O)cc1 | 20.8% (inactive) |

same assay, conditions: HepG2 viability, ATP luminescence (CellTiter-Glo), 72 h; at 0.012 µM; active compounds read low; 0% = untreated, negative = ATP loss

| Compound | max activity |
| --- | --- |
| N#C[C@@H]1[C@H](c2ccc(C#Cc3cccc(F)c3)cc2)[C@@H](CO)N1C(=O)C1CCCC1 | 24% (inactive) |

same assay, conditions: HepG2 viability, ATP luminescence (CellTiter-Glo), 72 h; at 0.035 µM; active compounds read low; 0% = untreated, negative = ATP loss

| Compound | max activity |
| --- | --- |
| C[C@H]1CN([C@@H](C)CO)C(=O)Cc2cc(NC(=O)C3CC3)ccc2O[C@H]1CN(C)S(=O)(=O)c1ccc(Cl)cc1 | -39.2% (inactive) |
| Nc1ccc2oc(-c3cc(Br)ccc3Cl)nc2c1 | -30.5% (inactive) |
| Nc1ncn([C@@H]2O[C@H](CO)[C@@H](O)[C@H]2O)c(=O)n1 | 16% (inactive) |
| CN1c2ccc(-c3ccc(C#N)cc3)cc2[C@H]2[C@H](CCN2S(=O)(=O)c2cccc(F)c2)[C@H]1CO | -29.8% (inactive) |
| C/C(=N\OCc1cccc(C(=O)O)c1)c1ccc(Cl)cc1 | -7.45% (inactive) |
| O=c1c2ccccc2oc2ccc(C#CC3(O)CCCCC3)cc12 | -33.7% (inactive) |
| N#CC1C=Cc2c(ccc3ccccc23)N1C(=O)c1ccccc1 (stereo not drawn) | -32.3% (inactive) |
| COCCCNc1ccn2nc(-c3ccccc3)cc2n1 | -48% (inactive) |

same assay, conditions: HepG2 viability, ATP luminescence (CellTiter-Glo), 72 h; at 0.1 µM; active compounds read low; 0% = untreated, negative = ATP loss

| Compound | max activity |
| --- | --- |
| COC(=O)C(CC#Cc1ccc2c(c1)[C@]1(C(=O)N2)[C@H](c2ccc(OCCO)cc2)N2[C@H](c3ccccc3)[C@H](c3ccccc3)OC(=O)[C@H]2[C@@H]1C(=O)N1CCN(c2ncccn2)CC1)C(=O)OC | -11.5% (inactive) |
| O=C(NC(=O)c1ccccc1)Nc1ccccc1 | -38.9% (inactive) |
| Cc1ccc(C(C(=O)NCc2ccco2)N(C(=O)CNC(=O)c2cccs2)c2c(C)cc(C)cc2C)cc1 (stereo not drawn) | -27% (inactive) |
| Cc1noc(C)c1NC(=O)Nc1ccc2c(c1)CC(=O)N([C@@H](C)CO)C[C@@H](C)[C@@H](CN(C)Cc1ccc(Cl)c(Cl)c1)O2 | 36.5% (inactive) |
| O=C1Nc2ccccc2C1=Nc1ccccc1-c1ccccc1 | 10.3% (inactive) |
| COc1cccc(S(=O)(=O)N(C)C[C@H]2OCc3cnnn3CCCC(=O)N([C@@H](C)CO)C[C@H]2C)c1 | -29.1% (inactive) |
| Cc1ccc(S(=O)(=O)N(C)C[C@@H]2Oc3cc(C#Cc4ccncc4)ccc3S(=O)(=O)N([C@@H](C)CO)C[C@H]2C)cc1 | -24.6% (inactive) |

same assay, conditions: HepG2 viability, ATP luminescence (CellTiter-Glo), 72 h; at 0.3 µM; active compounds read low; 0% = untreated, negative = ATP loss

| Compound | max activity |
| --- | --- |
| CCOc1ccccc1CNC(=O)c1ccc(Sc2ccc(Cl)cc2)c(NC(C)=O)c1 | -29.5% (inactive) |
| COc1ccc2nc(-c3ccc(F)cc3)sc2c1 | -47.1% (inactive) |
| N#C[C@H]1[C@H](c2ccc(-c3ccccc3F)cc2)[C@@H](CO)N1C(=O)Cc1ccccc1 | -22.2% (inactive) |
| COC(=O)C[C@@H]1CC[C@@H]2[C@@H](COc3ccc(NC(=O)Nc4ccccc4C)cc3C(=O)N2C)O1 | -23.1% (inactive) |
| CN(C)c1ccc(N=Nc2ccc(C(=O)O)cc2)cc1 | -28.7% (inactive) |
| O=c1c2ccccc2oc2cc(C#CC3(O)CCCCC3)ccc12 | 13.9% (inactive) |

same assay, conditions: HepG2 viability, ATP luminescence (CellTiter-Glo), 72 h; at 0.9 µM; active compounds read low; 0% = untreated, negative = ATP loss

| Compound | max activity |
| --- | --- |
| COc1cc(/C=N\Nc2nc(-c3ccc(C)cc3)c(NC(C)=O)s2)ccc1O | -20.6% (inactive) |
| COC(=O)C[C@@H]1CC[C@@H]2[C@H](COc3ccc(NC(=O)Nc4ccc(C#N)cc4)cc3C(=O)N2C)O1 | -48.5% (inactive) |
| COC(=O)C[C@@H]1CC[C@@H]2[C@H](COc3ccc(NC(=O)Nc4cccc(Cl)c4)cc3C(=O)N2C)O1 | -25.8% (inactive) |
| Cc1c(Cl)cccc1NC(=O)CCC(=O)N/N=C/c1ccc[nH]1 | 21.7% (inactive) |
| CCc1cnc(N2[C@H](C#N)[C@H](c3ccc(C#Cc4ccccc4F)cc3)[C@H]2CO)s1 | 65.8% (inactive) |
